Experimental data from the supplement of paper PMC12819154, “High-throughput peptide-centric local stability assay extends protein–ligand identification to membrane proteins, tissues and bacteria” (Nature Structural & Molecular Biology, 2025).

What was measured:
Assay in all cases: pEC50 of peptide local stability change
[1] = target: UniProt P25888; conditions: peptide sequence: DLMASAQTGTGK; direction: stabilized; replicate design: treated separately
Method: (§1)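 Dose-response HT-PELSA: desalted E. coli lysate treated separately per replicate with ATP (10 uM to 10 mM, 7 doses) for 30 min at 25 C, then a 4 min trypsin pulse at 22 C. Peptide ratio vs control was fitted with a 4-parameter log-logistic model (R2 > 0.9 in at least 3 replicates, CV of pEC50 <= 0.25); value is the mean pEC50 across replicates for stabilized or destabilized peptides.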

[2] = target: UniProt P07862; conditions: peptide sequence: AWTTLGCK; direction: stabilized; replicate design: treated separately
Method: as §1

[3] = target: UniProt P21599; conditions: peptide sequence: VLEVQGMK; direction: stabilized; replicate design: treated separately
UniProt P21599, sequence (P21599 whole entry): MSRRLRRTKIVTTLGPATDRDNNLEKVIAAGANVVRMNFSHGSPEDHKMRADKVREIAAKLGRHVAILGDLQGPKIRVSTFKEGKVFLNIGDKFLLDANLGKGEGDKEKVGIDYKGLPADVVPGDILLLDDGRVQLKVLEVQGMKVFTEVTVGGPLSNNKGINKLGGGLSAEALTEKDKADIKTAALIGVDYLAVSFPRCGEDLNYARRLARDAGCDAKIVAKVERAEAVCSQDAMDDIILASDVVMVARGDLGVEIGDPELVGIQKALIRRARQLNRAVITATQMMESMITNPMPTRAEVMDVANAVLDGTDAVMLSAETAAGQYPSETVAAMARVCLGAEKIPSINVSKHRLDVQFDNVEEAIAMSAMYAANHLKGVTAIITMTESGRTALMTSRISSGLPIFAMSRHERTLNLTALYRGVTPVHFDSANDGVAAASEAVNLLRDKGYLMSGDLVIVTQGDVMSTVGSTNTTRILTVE
Method: as §1

[4] = target: UniProt P22188; conditions: peptide sequence: LWCVFGCGGDRDK; direction: stabilized; replicate design: treated separately
UniProt P22188, sequence (P22188 whole entry): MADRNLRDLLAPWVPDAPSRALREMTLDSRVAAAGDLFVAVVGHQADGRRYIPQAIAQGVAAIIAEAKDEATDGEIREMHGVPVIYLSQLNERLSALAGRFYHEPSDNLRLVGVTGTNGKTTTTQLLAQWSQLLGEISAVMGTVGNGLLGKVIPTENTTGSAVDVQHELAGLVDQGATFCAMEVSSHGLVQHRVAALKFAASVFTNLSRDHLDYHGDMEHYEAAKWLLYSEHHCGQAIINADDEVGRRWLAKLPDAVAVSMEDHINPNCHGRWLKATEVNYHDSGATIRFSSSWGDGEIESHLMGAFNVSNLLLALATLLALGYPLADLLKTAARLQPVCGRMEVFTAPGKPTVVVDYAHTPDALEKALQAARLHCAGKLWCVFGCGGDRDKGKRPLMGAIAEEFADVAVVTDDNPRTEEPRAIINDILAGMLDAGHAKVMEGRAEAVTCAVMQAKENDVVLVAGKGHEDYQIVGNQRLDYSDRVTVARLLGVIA
Method: as §1

[5] = target: UniProt P76594; conditions: peptide sequence: YLVIQGIK; direction: stabilized; replicate design: treated separately
UniProt P76594, sequence (P76594 whole entry): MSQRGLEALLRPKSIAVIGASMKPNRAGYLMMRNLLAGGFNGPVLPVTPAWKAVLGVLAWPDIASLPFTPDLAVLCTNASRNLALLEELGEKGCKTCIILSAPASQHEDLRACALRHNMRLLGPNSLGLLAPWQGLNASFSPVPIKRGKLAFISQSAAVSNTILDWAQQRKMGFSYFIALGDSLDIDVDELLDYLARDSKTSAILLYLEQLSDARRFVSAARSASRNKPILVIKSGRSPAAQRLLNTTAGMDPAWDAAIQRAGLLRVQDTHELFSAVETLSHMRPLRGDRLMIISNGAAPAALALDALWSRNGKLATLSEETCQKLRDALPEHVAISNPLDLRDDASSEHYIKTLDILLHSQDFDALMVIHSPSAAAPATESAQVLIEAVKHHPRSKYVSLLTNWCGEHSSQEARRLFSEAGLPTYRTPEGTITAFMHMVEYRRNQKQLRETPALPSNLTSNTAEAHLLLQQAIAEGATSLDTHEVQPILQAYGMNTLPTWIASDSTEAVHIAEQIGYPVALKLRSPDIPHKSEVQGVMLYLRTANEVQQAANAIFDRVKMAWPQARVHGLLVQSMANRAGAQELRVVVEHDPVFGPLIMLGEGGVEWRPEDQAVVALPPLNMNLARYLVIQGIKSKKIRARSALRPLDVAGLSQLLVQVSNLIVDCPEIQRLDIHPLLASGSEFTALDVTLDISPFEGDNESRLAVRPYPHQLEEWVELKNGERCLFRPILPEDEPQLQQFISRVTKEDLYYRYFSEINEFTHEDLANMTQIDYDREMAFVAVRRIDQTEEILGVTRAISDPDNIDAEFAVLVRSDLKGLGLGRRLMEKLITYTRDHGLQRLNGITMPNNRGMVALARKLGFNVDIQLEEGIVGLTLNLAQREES
Method: as §1

[6] = target: UniProt P76422; conditions: peptide sequence: GGHLDDEQSPDWLFTR; direction: stabilized; replicate design: treated separately
Method: as §1

[7] = target: UniProt Q47129; conditions: peptide sequence: LSTVTTSGVNLSR; direction: stabilized; replicate design: treated separately
UniProt Q47129, sequence (Q47129 whole entry): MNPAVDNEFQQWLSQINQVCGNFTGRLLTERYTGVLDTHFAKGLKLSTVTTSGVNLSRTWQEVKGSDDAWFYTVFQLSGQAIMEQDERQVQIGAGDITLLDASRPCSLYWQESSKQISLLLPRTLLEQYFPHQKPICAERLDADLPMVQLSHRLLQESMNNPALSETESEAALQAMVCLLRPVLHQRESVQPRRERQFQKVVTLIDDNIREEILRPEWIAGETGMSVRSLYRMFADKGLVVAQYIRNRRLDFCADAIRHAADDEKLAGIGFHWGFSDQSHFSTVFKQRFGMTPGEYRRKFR
Method: as §1

[8] = target: UniProt P23538; conditions: peptide sequence: QVKIEDVPQEQR; direction: stabilized; replicate design: treated separately
Method: as §1

[9] = target: UniProt P21507; conditions: peptide sequence: DVLGSAPTGTGK; direction: stabilized; replicate design: treated separately
Method: as §1

[10] = target: UniProt P31142; conditions: peptide sequence: FNAEVDEPRPGLR; direction: stabilized; replicate design: treated separately
UniProt P31142, sequence (P31142 whole entry): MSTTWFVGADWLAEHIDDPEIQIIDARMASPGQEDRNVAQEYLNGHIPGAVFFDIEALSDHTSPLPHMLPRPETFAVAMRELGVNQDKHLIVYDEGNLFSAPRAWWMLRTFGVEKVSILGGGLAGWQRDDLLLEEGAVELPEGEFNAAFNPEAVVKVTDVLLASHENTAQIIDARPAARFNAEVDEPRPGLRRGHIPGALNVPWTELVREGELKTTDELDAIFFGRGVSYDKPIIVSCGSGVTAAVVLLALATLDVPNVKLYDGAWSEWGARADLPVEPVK
Method: as §1

[11] = target: UniProt P39410; conditions: peptide sequence: HIAQEMPEK; direction: stabilized; replicate design: treated separately
UniProt P39410, sequence (P39410 whole entry): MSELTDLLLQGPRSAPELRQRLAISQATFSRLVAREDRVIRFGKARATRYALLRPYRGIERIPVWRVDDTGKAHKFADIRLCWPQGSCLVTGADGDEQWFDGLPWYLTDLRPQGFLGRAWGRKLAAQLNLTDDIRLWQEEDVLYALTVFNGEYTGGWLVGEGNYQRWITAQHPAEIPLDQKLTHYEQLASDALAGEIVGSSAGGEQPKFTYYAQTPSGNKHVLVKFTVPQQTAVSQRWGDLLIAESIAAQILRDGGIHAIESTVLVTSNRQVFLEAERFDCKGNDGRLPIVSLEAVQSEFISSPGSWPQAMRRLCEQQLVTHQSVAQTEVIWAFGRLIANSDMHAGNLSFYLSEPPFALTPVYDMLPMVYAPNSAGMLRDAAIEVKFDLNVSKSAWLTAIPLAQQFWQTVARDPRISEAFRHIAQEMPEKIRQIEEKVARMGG
Method: as §1

[12] = target: UniProt P27300; conditions: peptide sequence: SVDAVIVNGGVPR; direction: stabilized; replicate design: treated separately
Method: as §1

[13] = target: UniProt P37908; conditions: peptide sequence: QLSHSPHGR; direction: stabilized; replicate design: treated separately
Method: as §1

[14] = target: UniProt P22106; conditions: peptide sequence: QALEDSVK; direction: stabilized; replicate design: treated separately
Method: as §1

[15] = target: UniProt P0AAB8; conditions: peptide sequence: EQCDLLVCGHHHSFINR; direction: stabilized; replicate design: treated separately
UniProt P0AAB8, sequence (P0AAB8 whole entry): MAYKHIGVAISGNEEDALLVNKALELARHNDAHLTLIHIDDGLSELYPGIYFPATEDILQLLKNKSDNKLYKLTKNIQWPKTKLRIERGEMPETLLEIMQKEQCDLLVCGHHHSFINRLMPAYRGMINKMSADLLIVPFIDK
Method: as §1

[16] = target: UniProt P37624; conditions: peptide sequence: VLASGTPQELVEKR; direction: stabilized; replicate design: treated separately
Method: as §1

[17] = target: UniProt P27828; conditions: peptide sequence: AHNPYGDGQACSR; direction: stabilized; replicate design: treated separately
Method: as §1

[18] = target: UniProt Q06065; conditions: peptide sequence: QPVCNAGEVK; direction: stabilized; replicate design: treated separately
Method: as §1

[19] = target: UniProt P0A6H5; conditions: peptide sequence: LANAPFIK; direction: stabilized; replicate design: treated separately
Method: as §1

[20] = target: UniProt P30844; conditions: peptide sequence: AGQSFSSGNYQHVK; direction: stabilized; replicate design: treated separately
Method: as §1

[21] = target: UniProt P24193; conditions: peptide sequence: DAALIGEVVERK; direction: stabilized; replicate design: treated separately
Method: as §1

[22] = target: UniProt P20083; conditions: peptide sequence: RDGQVYNIAFENGEK; direction: stabilized; replicate design: treated separately
Method: as §1

[23] = target: UniProt P0C0L2; conditions: peptide sequence: GQAHWEGDIKR; direction: stabilized; replicate design: treated separately
Method: as §1

[24] = target: UniProt P00363; conditions: peptide sequence: LAGEQATER; direction: stabilized; replicate design: treated separately
Method: as §1

[25] = target: UniProt P04425; conditions: peptide sequence: GTLIVNKPQSLR; direction: stabilized; replicate design: treated separately
Method: as §1

[26] = target: UniProt P0DMC5; conditions: peptide sequence: EVMNHITANYLPLVVR; direction: stabilized; replicate design: treated separately
UniProt P0DMC5, sequence (P0DMC5 whole entry): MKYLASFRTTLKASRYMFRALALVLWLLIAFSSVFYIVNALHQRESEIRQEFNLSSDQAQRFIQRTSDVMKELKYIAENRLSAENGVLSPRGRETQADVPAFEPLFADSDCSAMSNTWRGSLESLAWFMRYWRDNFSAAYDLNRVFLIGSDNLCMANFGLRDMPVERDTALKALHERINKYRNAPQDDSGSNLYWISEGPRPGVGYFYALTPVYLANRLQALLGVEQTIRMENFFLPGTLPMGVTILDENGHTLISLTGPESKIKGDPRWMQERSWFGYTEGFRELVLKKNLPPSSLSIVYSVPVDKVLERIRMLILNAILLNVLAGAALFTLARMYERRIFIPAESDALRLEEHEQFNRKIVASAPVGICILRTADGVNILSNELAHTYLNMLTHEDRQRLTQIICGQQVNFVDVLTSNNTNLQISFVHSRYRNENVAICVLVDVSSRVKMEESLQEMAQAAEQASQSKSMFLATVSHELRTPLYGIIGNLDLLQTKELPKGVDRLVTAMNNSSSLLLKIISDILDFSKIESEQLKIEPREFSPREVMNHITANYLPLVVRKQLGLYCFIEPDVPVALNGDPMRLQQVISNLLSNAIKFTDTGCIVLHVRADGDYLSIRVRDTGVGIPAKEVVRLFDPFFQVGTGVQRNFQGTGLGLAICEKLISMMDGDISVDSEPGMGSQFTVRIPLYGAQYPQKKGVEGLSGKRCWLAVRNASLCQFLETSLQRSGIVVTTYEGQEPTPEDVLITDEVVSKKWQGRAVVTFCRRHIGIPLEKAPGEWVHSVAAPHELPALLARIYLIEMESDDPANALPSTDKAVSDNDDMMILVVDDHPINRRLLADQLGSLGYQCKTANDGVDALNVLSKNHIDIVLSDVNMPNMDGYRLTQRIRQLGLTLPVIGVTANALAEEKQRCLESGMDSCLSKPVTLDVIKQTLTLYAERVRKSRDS
Method: as §1

[27] = target: UniProt P75957; conditions: peptide sequence: KKPAEINSR; direction: stabilized; replicate design: treated separately
UniProt P75957, sequence (P75957 whole entry): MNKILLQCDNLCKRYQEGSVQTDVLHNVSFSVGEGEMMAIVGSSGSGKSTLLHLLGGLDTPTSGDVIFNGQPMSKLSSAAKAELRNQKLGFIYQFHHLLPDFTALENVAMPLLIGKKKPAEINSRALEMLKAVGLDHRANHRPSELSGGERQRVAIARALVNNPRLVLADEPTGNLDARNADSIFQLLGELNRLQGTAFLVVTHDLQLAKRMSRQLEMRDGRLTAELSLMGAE
Method: as §1

[28] = target: UniProt P07821; conditions: peptide sequence: LVDSLSGGER; direction: stabilized; replicate design: treated separately
Method: as §1

[29] = target: UniProt P37903; conditions: peptide sequence: KFKLPTDR; direction: stabilized; replicate design: treated separately
Method: as §1

[30] = target: UniProt P75796; conditions: peptide sequence: IPEAQTILSR; direction: stabilized; replicate design: treated separately
UniProt P75796, sequence (P75796 whole entry): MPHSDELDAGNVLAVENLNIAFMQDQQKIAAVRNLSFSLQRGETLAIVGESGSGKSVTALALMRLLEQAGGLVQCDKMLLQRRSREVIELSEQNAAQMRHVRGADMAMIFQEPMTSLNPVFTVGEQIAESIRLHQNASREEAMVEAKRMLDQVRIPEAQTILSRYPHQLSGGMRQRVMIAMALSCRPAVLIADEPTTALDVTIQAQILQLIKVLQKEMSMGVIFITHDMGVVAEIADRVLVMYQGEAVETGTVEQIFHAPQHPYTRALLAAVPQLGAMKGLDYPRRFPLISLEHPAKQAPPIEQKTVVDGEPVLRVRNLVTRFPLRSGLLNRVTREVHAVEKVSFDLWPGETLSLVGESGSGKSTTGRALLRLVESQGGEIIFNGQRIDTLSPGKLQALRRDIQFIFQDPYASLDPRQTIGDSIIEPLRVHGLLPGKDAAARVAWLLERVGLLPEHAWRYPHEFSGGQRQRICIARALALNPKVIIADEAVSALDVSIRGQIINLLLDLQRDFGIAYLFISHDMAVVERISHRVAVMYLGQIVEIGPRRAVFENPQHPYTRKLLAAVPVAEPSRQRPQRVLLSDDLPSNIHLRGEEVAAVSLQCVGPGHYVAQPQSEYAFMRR
Method: as §1

[31] = target: UniProt P39342; conditions: peptide sequence: AMVIAPCSR; direction: stabilized; replicate design: treated separately
Method: as §1

Nc1ncnc2c1ncn2[C@@H]1O[C@H](COP(=O)(O)OP(=O)(O)OP(=O)(O)O)[C@@H](O)[C@H]1O [adenosine 5'-triphosphate]
Conditions	pEC50 of peptide local stability change
[1]	3.76
[2]	3.66
[3]	2.4
[4]	3.89
[5]	2.33
[6]	3.76
[7]	2.46
[8]	4.42
[9]	4.35
[10]	3.24
[11]	3.92
[12]	3.18
[13]	2.73
[14]	2.42
[15]	3.82
[16]	3.2
[17]	2.12
[18]	3.47
[19]	3.26
[20]	2.71
[21]	4.4
[22]	3.38
[23]	3.96
[24]	2.48
[25]	3.85
[26]	2.58
[27]	3.56
[28]	3.1
[29]	3.72
[30]	3.2
[31]	4.23
